Tested on: NF-κB
Test: NF-kappaB reporter assay (pNF-kappaB-SEAP) in IL-1β-stimulated MKN-45 cells
Format: cell-based, human
Conditions: IL-1β 2 ng/mL for 6 hours, DMSO (0.05%) control = 1.00, triplicate
Method: pNF-kappaB-SEAP was obtained from Clonetech Laboratories Inc.
Cryopreserved MKN-45 cells (product of JCRB (Japanese Collection of Research Bioresources)) were thawed and cultured in a standard medium in an incubator (37° C., 5% CO2). Every three to five days, the cells were recovered by treatment with Trypsin-EDTA, then adequately diluted and subcultured. MKN-45 cells subcultured two or more times with a survival rate of 95% or more were used in each experiment.
The subcultured MKN-45 cells were harvested using Trypsin-EDTA solution, and the number of viable cells was counted. The cells were suspended in a standard medium to yield a 1.5×10^5 cells/mL suspension. A 24-well plate was seeded with 500 μL/well of the cell suspension, and the cells were cultured in an incubator (37° C., 5% CO2).
The day after seeding, transfection was performed according to the following protocol.
(4.1) Preparation of Plasmid Solution 4 μL of 0.1 μg/μL pNFkappaB-SEAP was placed into each well and diluted with 50 μL of OPTI-MEM I (product of Invitrogen Japan K.K.) by mixing by inversion.
1 μL of Lipofectamine 2000 reagent (product of Invitrogen) was placed into each well and diluted with 50 μL of OPTI-MEM I (product of Life Technologies Inc.) by mixing by inversion. The mixture was allowed to stand at room temperature for 5 to 10 minutes to prepare a Lipofectamine dilution.
The plasmid solution and the Lipofectamine dilution were mixed by inversion and allowed to stand at room temperature for 20 to 30 minutes to prepare a transfection mixture.
The culture medium was removed from the 24-well plate by suction. While care was taken not to dry the subcultured MKN-45 cells, the inner surface of the wells was washed with 1 mL/well of PBS. After the medium was replaced with 500 μL/well of OPTI-MEM I (product of Life Technologies Inc.), 100 μL/well of the transfection mixture was added, and the cells were cultured in a incubator (37° C., 5% CO2). After about 5 hours of incubation, the medium was replaced with a standard medium, and the cells were further cultured in a CO2 incubator (37° C., 5% CO2) until the following day.
On the following morning, the culture medium supernatant was removed by suction and replaced with 1 mL/well of the test compound solution or control solution diluted with a standard medium. The cells were cultured in a CO2 incubator (37° C., 5% CO2) for 1 hour. Each experiment was performed in triplicate.
200 ng/mL IL-1β was added in an amount of 10 μL/well (final concentration: 2 ng/mL), and the cells were cultured in a CO2 incubator (37° C., 5% CO2) for 6 hours.
A reporter assay was performed using Reporter Assay Kit-SEAP (product of Toyobo Co.) according to the manufacturer's protocol.
More specifically, 500 μL of the culture broth was transferred into a tube and centrifuged at 15,000 rpm for 5 minutes at 4° C. The supernatant was transferred into a 96-well white plate. The positive control included in the Reporter Assay Kit-SEAP, and a standard medium as a blank control were each added in an amount of 20 μL/well to the 96-well white plate. Further, an inhibitor for inhibiting the AP activity of the MKN-45 cells was added in an amount of 20 μL/well. After sealing the plate, the contents were mixed well. The plate was placed into a CO2 incubator (37° C., 5% CO2) and allowed to stand for 30 minutes. Subsequently, the plate was allowed to stand on ice for 1 minute, followed by addition of 160 μL/well of Lumi-Phos Plus (a chemiluminescent substrate, product of Lumigen Inc.). The plate was sealed again and placed in a light-shielded state into a CO2 incubator (37° C., 5% CO2). After the plate was allowed to stand for 15 to 30 minutes, luminescence was measured for about 5 to about 10 seconds using a luminometer.
The results of the reporter assay were expressed as Percent Control (or Inhibition), calculated according to the following formulae. The luminescence of each sample was calculated by subtracting the average of blank samples.

COc1ccc(CC2SC(=S)NC2=O)c2c1N(CCC(C)C)C(=O)CC2 (stereo not shown) [Test Compound 965]
NF-kappaB reporter (SEAP luminescence) IL-1b(+) mean, relative to control: 0.68

Source: patent US20090326008A1, “NF-kappa B Inhibitor” (priority 2006, published 2009)
